Experimental data from ChEMBL document CHEMBL4130400, “Development of GLUT4-selective antagonists for multiple myeloma therapy” (Eur J Med Chem, 2017).
Each block holds one compound with its values, some of them ahead of it. The source made the active and inactive calls. The rule behind the calls is not given here. Where a SMILES comes first, the peptide text is derived from it. The star is where a group is joined. Cbz = O=C(OCc1ccccc1)*

Columns and labels:
KMS-11 = test: Antiproliferative activity against human KMS11 cells over-expressing GFP after 72 hrs by CellTiter-Glo assay; format: functional, cell-based; conditions: KMS-11, 72 h
[1] = target: T1, Solute carrier family 2, facilitated glucose transporter member 1 (Homo sapiens, UniProt P11166); test: Antagonist activity at human GLUT1 expressed in HEK293 cells transfected with GLUT1 shRNA assessed as inhibition of [3H]2-deoxy-D-glucose uptake preincubated for 5 mins followed by [3H]2-deoxy-D-glucose addition and measured after 6 mins; format: cell-based
T1 sequence (P11166 whole entry): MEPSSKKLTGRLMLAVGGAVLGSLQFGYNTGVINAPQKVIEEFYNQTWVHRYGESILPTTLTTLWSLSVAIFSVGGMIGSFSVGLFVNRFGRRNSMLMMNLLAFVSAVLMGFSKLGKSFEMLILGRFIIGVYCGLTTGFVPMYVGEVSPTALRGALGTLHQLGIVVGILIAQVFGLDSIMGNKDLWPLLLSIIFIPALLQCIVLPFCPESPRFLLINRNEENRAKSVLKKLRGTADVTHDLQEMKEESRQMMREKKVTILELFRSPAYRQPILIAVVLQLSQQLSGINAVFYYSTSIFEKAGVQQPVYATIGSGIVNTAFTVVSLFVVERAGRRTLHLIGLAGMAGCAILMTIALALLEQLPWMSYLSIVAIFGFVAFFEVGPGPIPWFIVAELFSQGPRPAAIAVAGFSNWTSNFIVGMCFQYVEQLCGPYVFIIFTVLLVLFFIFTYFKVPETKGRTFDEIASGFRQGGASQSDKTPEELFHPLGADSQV

[2] = target: T2, Solute carrier family 2, facilitated glucose transporter member 4 (Homo sapiens, UniProt P14672); test: Antagonist activity at human GLUT4 expressed in HEK293 cells transfected with GLUT1 shRNA assessed as inhibition of [3H]2-deoxy-D-glucose uptake preincubated for 5 mins followed by [3H]2-deoxy-D-glucose addition and measured after 6 mins; format: cell-based
T2 sequence (P14672 whole entry): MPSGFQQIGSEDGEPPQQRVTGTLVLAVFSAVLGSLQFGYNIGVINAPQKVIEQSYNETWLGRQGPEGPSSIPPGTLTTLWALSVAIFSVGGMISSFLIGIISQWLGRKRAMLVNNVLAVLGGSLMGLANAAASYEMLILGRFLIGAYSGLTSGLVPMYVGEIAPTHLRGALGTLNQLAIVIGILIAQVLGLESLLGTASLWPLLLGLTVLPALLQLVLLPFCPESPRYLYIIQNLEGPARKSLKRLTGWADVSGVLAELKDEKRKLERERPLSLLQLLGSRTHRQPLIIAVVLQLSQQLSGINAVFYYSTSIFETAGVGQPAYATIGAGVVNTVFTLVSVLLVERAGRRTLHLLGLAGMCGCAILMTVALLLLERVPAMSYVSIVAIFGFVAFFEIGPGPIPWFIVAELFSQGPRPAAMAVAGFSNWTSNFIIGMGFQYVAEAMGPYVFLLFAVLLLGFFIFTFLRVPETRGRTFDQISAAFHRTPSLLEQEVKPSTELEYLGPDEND

[3] = target: T3, Solute carrier family 2, facilitated glucose transporter member 8 (Homo sapiens, UniProt Q9NY64); test: Antagonist activity at human GLUT8 expressed in HEK293 cells transfected with GLUT1 shRNA assessed as inhibition of [3H]2-deoxy-D-glucose uptake preincubated for 5 mins followed by [3H]2-deoxy-D-glucose addition and measured after 6 mins; format: cell-based
T3 sequence (Q9NY64 whole entry): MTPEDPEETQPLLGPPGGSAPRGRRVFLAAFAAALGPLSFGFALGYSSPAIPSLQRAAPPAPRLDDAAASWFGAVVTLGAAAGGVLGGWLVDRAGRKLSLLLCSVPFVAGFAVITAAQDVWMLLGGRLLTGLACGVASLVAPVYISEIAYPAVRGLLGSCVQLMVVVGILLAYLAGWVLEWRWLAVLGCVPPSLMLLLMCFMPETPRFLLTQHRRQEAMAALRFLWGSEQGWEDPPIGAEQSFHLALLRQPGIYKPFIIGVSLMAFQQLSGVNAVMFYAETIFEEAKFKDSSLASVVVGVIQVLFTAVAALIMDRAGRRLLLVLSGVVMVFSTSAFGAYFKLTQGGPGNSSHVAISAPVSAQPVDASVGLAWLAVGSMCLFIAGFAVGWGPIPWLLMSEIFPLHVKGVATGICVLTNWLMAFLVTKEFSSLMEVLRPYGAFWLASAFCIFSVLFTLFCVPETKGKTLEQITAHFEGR

[4] = target: T4, Solute carrier family 2, facilitated glucose transporter member 1 (Rattus norvegicus) (UniProt P11167); test: Displacement of ATB-BMPA from rat C-terminal 6His/Myc-tagged GLUT1 expressed in HEK293 cell low density microsome at 20 uM preincubated for 10 mins followed by ATB-BMPA addition measured after 10 mins; format: cell-based
T4 sequence (whole entry): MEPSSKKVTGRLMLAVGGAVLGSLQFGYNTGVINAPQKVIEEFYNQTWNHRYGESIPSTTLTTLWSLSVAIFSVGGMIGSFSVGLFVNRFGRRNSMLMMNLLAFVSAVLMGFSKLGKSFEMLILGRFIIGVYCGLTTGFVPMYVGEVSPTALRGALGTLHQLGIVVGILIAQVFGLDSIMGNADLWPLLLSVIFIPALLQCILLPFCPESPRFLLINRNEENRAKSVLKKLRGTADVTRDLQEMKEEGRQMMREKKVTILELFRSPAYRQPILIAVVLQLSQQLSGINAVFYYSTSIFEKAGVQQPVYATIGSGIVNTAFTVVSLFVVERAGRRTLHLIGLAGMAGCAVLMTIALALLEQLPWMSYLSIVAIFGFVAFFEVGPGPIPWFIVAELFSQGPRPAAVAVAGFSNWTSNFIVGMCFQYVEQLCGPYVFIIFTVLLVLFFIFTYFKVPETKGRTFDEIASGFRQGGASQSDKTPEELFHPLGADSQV

[5] = target: T5, Solute carrier family 2, facilitated glucose transporter member 4 (Rattus norvegicus) (UniProt P19357); test: Displacement of ATB-BMPA from rat C-terminal 6His/Myc-tagged GLUT4 expressed in HEK293 cell low density microsome at 20 uM preincubated for 10 mins followed by ATB-BMPA addition measured after 10 mins; format: cell-based
T5 sequence (whole entry): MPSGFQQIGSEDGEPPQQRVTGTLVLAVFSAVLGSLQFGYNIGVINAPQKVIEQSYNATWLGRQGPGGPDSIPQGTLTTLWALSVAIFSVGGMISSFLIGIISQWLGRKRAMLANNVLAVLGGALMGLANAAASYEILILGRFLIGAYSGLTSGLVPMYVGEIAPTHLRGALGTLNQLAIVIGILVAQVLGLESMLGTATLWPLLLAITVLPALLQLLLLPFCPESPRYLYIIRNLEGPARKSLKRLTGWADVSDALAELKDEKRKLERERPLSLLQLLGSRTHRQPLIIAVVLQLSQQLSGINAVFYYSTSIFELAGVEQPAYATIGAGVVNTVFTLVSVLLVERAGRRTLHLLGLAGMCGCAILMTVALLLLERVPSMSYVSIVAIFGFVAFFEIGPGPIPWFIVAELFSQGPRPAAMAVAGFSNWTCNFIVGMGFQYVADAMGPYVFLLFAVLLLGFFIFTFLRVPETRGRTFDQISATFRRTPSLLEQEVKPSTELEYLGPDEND

[6] = target: T6, Solute carrier family 2, facilitated glucose transporter member 4 (Rattus norvegicus, UniProt P19357); test: Antagonist activity at GLUT4 in rat adipocytes assessed as reduction in insulin-stimulated [3H]2-deoxyglucose uptake preincubated for 1 min followed by [3H]2-deoxyglucose addition measured after 1 min by liquid scintillation counting analysis; format: cell-based
T6 sequence (P19357 whole entry): T5 sequence (whole entry)

Compound: COc1ccc(C(=O)N(Cc2ccncc2)Cc2cccc(OCc3ccc(C(F)(F)F)cc3)c2)cc1
- IC50 (KMS-11): 14.3 µM

Compound: COc1ccc(C(=O)N(Cc2ccncc2)Cc2cccc(OCC3CCOCC3)c2)cc1
- IC50 (KMS-11): 17.7 µM

Compound: COc1ccc(C(=O)N(Cc2ccncc2)Cc2cccc(OCc3ccc(F)cc3)c2)cc1
- IC50 (KMS-11): 22.7 µM

Compound: COc1ccc(C(=O)N(Cc2ccncc2)Cc2cccc(OCC(=O)c3cccc(Br)c3)c2)cc1
- IC50 (KMS-11): 18.7 µM

- IC50 [1]: > 100 µM
- IC50 [2]: 20 µM
- IC50 [3]: > 100 µM
Compound: Oc1cccc(CNCc2ccncc2)c1

Compound: COc1ccc(C(=O)N(Cc2ccncc2)Cc2cccc(OCC3CCN(C(=O)OC(C)(C)C)CC3)c2)cc1
- IC50 (KMS-11): 5.1 µM

- IC50 [1]: > 100 µM
- IC50 [2]: 1.7 µM
- IC50 [3]: 6 µM
- Activity [4]: Active
- Activity [5]: Active
Compound: COc1ccc(C(=O)N(Cc2ccncc2)Cc2cccc(OCCc3ccc(F)cc3)c2)cc1

Compound: COc1ccc(C(=O)N(Cc2ccncc2)Cc2cccc(OCCc3ccc(C)cc3)c2)cc1
- IC50 (KMS-11): 9.1 µM

- Ki [6]: 26 µM
Compound: CCOC(=O)[C@H](Cc1ccccc1)NC(=O)[C@H](Cc1ccccc1)NC(=O)[C@H](Cc1cnc[nH]1)NC(=O)OCc1ccccc1 (Cbz-His-Phe-Phe-OEt)
